Reference: patent publication US9029409B2, “Isoxazolines as therapeutic agents” (AbbVie Inc., priority 2011, dated 2015)

target: T1, recombinant human MMP13 catalytic domain (CD) (Homo sapiens, UniProt P45452); assay: MMP-13 catalytic domain FRET enzyme assay; assay type: biochemical; conditions: recombinant human MMP-13 catalytic domain
T1 construct: catalytic domain (CD) construct encompassing residues 20-274 (SWISS-PROT P45452); made in house
Method in brief: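 Human MMP-13 catalytic domain (res 20-274, E. coli-expressed), 0.4 nM, cleaving FRET peptide (0.25 μM) in Tris pH 7.5/CaCl2/NaCl/Brij 35, 5% DMSO, 60 min RT; EDTA-quenched, fluorescence 485/535 nm. IC50 from sigmoidal fit of % inhibition. Some compounds also run on APMA-activated full-length MMP13 (2 nM).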

| IC50 [nM] | Structure (SMILES) |
| --- | --- |
| 10 to 100 | Cc1nc(C(=O)NCc2ccc3c(c2)CCO3)cc(C2=NO[C@H]([C@H]3CO[C@H](CO)CO3)C2)n1 |
| > 1000 | COc1cc(CNC(=O)c2cc(C3=NOC(CN4CCN(C(C)=O)CC4)C3)nc(C)n2)ccc1F (centres unmarked) |
| 10 to 100 | Cc1nc(C(=O)NCc2ccc(F)c(F)c2)cc(C2=NOC(c3ccc(C#N)nn3)C2)n1 (centres unmarked) |
| < 10 | COc1cc(CNC(=O)c2cc(C3=NOC(c4ccc(C#N)nc4)C3)nc(C)n2)ccc1F (centres unmarked) |
| 10 to 100 | Cc1nc(C(=O)NCc2ccc(F)c(F)c2)cc(C2=NOC(c3ccccn3)C2)n1 (centres unmarked) |
| 10 to 100 | COc1cc(CNC(=O)c2cc(C3=NOC(C4CCN(C(=O)CNS(C)(=O)=O)CC4)C3)nc(C)n2)ccc1F (centres unmarked) |
| > 1000 | COc1cc(CNC(=O)c2cc(C3=NOC(c4ccc(N5CCCC5)nn4)C3)nc(C)n2)ccc1F (centres unmarked) |
| 10 to 100 | COc1cc(CNC(=O)c2cc(C3=NOC(c4ccn(C)c(=O)c4)C3)nc(C)n2)ccc1F (centres unmarked) |
| 10 to 100 | COc1cc(CNC(=O)c2cc(C3=NOC(C4CCN(C(=O)CNC(C)=O)CC4)C3)nc(C)n2)ccc1F (centres unmarked) [drawing 879] |
| < 10 | CC(=O)N[C@H]1CC[C@H](C2CC(c3cc(C(=O)NCc4ccc5c(c4)NC(=O)CO5)nc(C)n3)=NO2)CC1 (some centres unmarked) |
| < 10 | Cc1nc(C(=O)NCc2ccc(F)c(C)c2)cc(C2=NOC(c3ccc(C#N)nn3)C2)n1 (centres unmarked) |
| < 10 | COc1ccc(CNC(=O)c2cc(C3=NOC(c4ccc(C(N)=O)cc4)C3)nc(C)n2)cc1 (centres unmarked) |
| 10 to 100 | COc1ccc(CNC(=O)c2cc(C3=NO[C@H]([C@H]4CO[C@H](CO)CO4)C3)nc(C)n2)cc1 |
| 100 to 1000 | Cc1nc(C(=O)NCc2ccc(F)c(F)c2)cc(C2=NO[C@@H](c3ccc(=O)n(C)c3)C2)n1 |
| > 1000 | COc1ccc(CNC(=O)c2cc(C3=NOC(c4cnccn4)C3)ccn2)cc1 (centres unmarked) |
| 10 to 100 | COc1cc(CNC(=O)c2cc(C3=NOC(C4CCN(C(C)=O)CC4)C3)nc(C)n2)ccc1F (centres unmarked) |
| 10 to 100 | COc1cc(CNC(=O)c2cc(C3=NOC([C@H]4CC[C@H](NC(=O)CN(C)C)CC4)C3)nc(C)n2)ccc1F (some centres unmarked) |
| 10 to 100 | COc1ccc(CNC(=O)c2cc(C3=NOC(c4cccc(OCCO)c4)C3)nc(C)n2)cc1 (centres unmarked) |
| 10 to 100 | Cc1nc(C(=O)NCc2ccc(F)c(Cl)c2)cc(C2=NO[C@H]([C@H]3CO[C@H](CO)CO3)C2)n1 [drawing 1069] |
| 10 to 100 | Cc1nc(C(=O)NCc2ccc(F)c(C)c2)cc(C2=NO[C@@H]([C@H]3CC[C@H](NC(=O)[C@H](C)O)CC3)C2)n1 |
| 100 to 1000 | COc1ccc(CNC(=O)c2cc(C3CC(c4ccccc4)=NO3)nc(C)n2)cc1 (centres unmarked) |
| < 10 | COc1cc(CNC(=O)c2cc(C3=NOC(c4ccc(=O)n(C(C)C)c4)C3)nc(C)n2)ccc1F (centres unmarked) |
| < 10 | COc1cc(CNC(=O)c2cc(C3=NO[C@H](c4ccc(=O)n(C5CC5)c4)C3)nc(C)n2)ccc1F |
| < 10 | CNC(=O)N[C@H]1CC[C@H](C2CC(c3cc(C(=O)NCc4ccc(F)c(OC)c4)nc(C)n3)=NO2)CC1 (some centres unmarked) |
| < 10 | COc1cc(CNC(=O)c2cc(C3=NOC([C@H]4CC[C@H](NC(C)=O)CC4)C3)nc(C)n2)ccc1F (some centres unmarked) |
| < 10 | Cc1nc(C(=O)NCc2ccc(F)c(C)c2)cc(C2=NOC(c3ccc(=O)n(C)c3)C2)n1 (centres unmarked) [drawing 990] |

| IC50 [nM] | Structure (SMILES) |
| --- | --- |
| > 1000 | COc1ccc(CNC(=O)c2cc(C3=NOC(c4nn[nH]n4)C3)nc(C)n2)cc1 (centres unmarked) |
| < 10 | COc1cc(CNC(=O)c2cc(C3=NO[C@H](c4ccn(C)c(=O)c4)C3)nc(C)n2)ccc1F |
| < 10 | COc1cc(CNC(=O)c2cc(C3=NOC(c4ccc(=O)n(CC(=O)NC5CC5)c4)C3)nc(C)n2)ccc1F (centres unmarked) |
| 10 to 100 | COc1cc(CNC(=O)c2cc(C3=NOC(C4CCN(C(=O)C5CCC5)CC4)C3)nc(C)n2)ccc1F (centres unmarked) |
| 100 to 1000 | COc1ccc(CNC(=O)c2cc(C3=NOC(C)(c4ccc(CO)cc4)C3)nc(C)n2)cc1 (centres unmarked) |
| 10 to 100 | CNC(=O)c1ccc(C2CC(c3cc(C(=O)NCc4ccc(F)c(OC)c4)nc(C)n3)=NO2)nc1 (centres unmarked) |
| < 10 | COc1cc(CNC(=O)c2cc(C3=NOC(c4cc(Cl)c(=O)n(C5CC5)c4)C3)nc(C)n2)ccc1F (centres unmarked) |
| 10 to 100 | COc1cc(CNC(=O)c2cc(C3=NOC(C4CCN(C(=O)CN(C)C)CC4)C3)nc(C)n2)ccc1F (centres unmarked) |
| > 1000 | Cc1nc(C(=O)NCc2cccc(F)c2)cc(C2=NO[C@H]([C@H]3CO[C@H](CO)CO3)C2)n1 |
| < 10 | CNC(=O)[C@H]1CC[C@H](C2CC(c3cc(C(=O)NCc4ccc(F)c(OC)c4)nc(C)n3)=NO2)CC1 (some centres unmarked) |
| 10 to 100 | CCNC(=O)N1CCC(C2CC(c3cc(C(=O)NCc4ccc(F)c(OC)c4)nc(C)n3)=NO2)CC1 (centres unmarked) [drawing 1062] |
| < 10 | Cc1nc(C(=O)NCc2ccc3c(c2)NC(=O)CO3)cc(C2=NO[C@@H]([C@H]3CC[C@H](NC(=O)[C@H](C)O)CC3)C2)n1 |
| > 1000 | COc1cccc(CNC(=O)c2cc(C3=NO[C@@H]([C@H]4CO[C@H](CO)CO4)C3)nc(C)n2)c1 |
| 10 to 100 | CC(=O)N1CCC(C2CC(c3cc(C(=O)NCc4ccc(F)c(F)c4)nc(C)n3)=NO2)CC1 (centres unmarked) |
| > 1000 | COc1cccc(CNC(=O)c2cc(C3=NO[C@@H]([C@@H]4CO[C@@H](CO)CO4)C3)nc(C)n2)c1 |
| < 10 | COc1cc(CNC(=O)c2cc(C3=NOC([C@H]4CC[C@H](NS(C)(=O)=O)CC4)C3)nc(C)n2)ccc1F (some centres unmarked) |
| 10 to 100 | COc1cc(CNC(=O)c2cc(C3=NOC(c4ccc(=O)n(C)n4)C3)nc(C)n2)ccc1F (centres unmarked) |
| < 10 | COc1cc(CNC(=O)c2cc(C3=NOC(c4ccc(C#N)nn4)C3)nc(C)n2)ccc1F (centres unmarked) |
| < 10 | COc1cc(CNC(=O)c2cc(C3=NOC(c4ccc(C(C)O)cn4)C3)nc(C)n2)ccc1F (centres unmarked) |
| < 10 | Cc1nc(C(=O)NCc2ccc(F)c(C)c2)cc(C2=NO[C@H]([C@H]3CO[C@H](CS(C)(=O)=O)CO3)C2)n1 |
| > 1000 | COc1ccc(CNC(=O)c2cc(C3=NO[C@H]([C@H]4CO[C@@H](CO)CO4)C3)nc(C)n2)cc1 [drawing 923] |
| < 10 | CC(=O)N[C@H]1CC[C@H]([C@@H]2CC(c3cc(C(=O)NCc4ccc5c(c4)NC(=O)CO5)nc(C)n3)=NO2)CC1 |
| < 10 | COc1cc(CNC(=O)c2cc(C3=NOC(c4cccc(CN5CCOCC5)c4)C3)nc(C)n2)ccc1F (centres unmarked) |
| < 10 | COc1cc(CNC(=O)c2cc(C3=NO[C@H]([C@H]4CC[C@H](NC(=O)[C@H](C)O)CC4)C3)nc(C)n2)ccc1F |
| 10 to 100 | COc1cc(CNC(=O)c2cc(C3=NOC(c4ccc(C(=O)NCCO)cc4)C3)nc(C)n2)ccc1F (centres unmarked) |
| 10 to 100 | COc1ccc(CNC(=O)c2cc(C3=NOC(c4ccc(OC)cc4)C3)nc(C)n2)cc1 (centres unmarked) |

| IC50 [nM] | Structure (SMILES) |
| --- | --- |
| < 10 | COc1cc(CNC(=O)c2cc(C3=NOC(c4ccc(-c5nc(C)no5)nc4)C3)nc(C)n2)ccc1F (centres unmarked) |
| 10 to 100 | CC(=O)N[C@H]1CC[C@H](C2CC(c3cc(C(=O)NCc4ccc(F)c(F)c4)nc(C)n3)=NO2)CC1 (some centres unmarked) |
| < 10 | COc1cc(CNC(=O)c2cc(C3=NOC(c4ccc(C(N)=O)cc4)C3)nc(C)n2)ccc1F (centres unmarked) |
| 10 to 100 | COc1cc(CNC(=O)c2cc(C3=NOC(c4ccc(CN5CCOCC5)cc4)C3)nc(C)n2)ccc1F (centres unmarked) |
| 10 to 100 | COc1cc(CNC(=O)c2cc(C3=NOC(c4cnc5c(cnn5C)c4)C3)nc(C)n2)ccc1F (centres unmarked) |
| 10 to 100 | CNC(=O)c1ccc(C2CC(c3cc(C(=O)NCc4ccc(F)c(OC)c4)nc(C)n3)=NO2)nn1 (centres unmarked) |
| 10 to 100 | COc1cc(CNC(=O)c2cc(C3=NOC([C@H]4CC[C@H](NC(=O)NC(CO)CO)CC4)C3)nc(C)n2)ccc1F (some centres unmarked) |
| < 10 | COc1cc(CNC(=O)c2cc(C3=NOC(C4CCN(C(=O)NCCO)CC4)C3)nc(C)n2)ccc1F (centres unmarked) [drawing 1067] |
| 10 to 100 | COc1cc(CNC(=O)c2cc(C3=NOC(CC4CCN(C(C)=O)CC4)C3)nc(C)n2)ccc1F (centres unmarked) |
| < 10 | COc1cc(CNC(=O)c2cc(C3=NOC(c4ccc(=O)n(CC(=O)N(C)OC)c4)C3)nc(C)n2)ccc1F (centres unmarked) |
| > 1000 | COc1ccc(CNC(=O)c2cc(C3=NO[C@H]([C@H]4CO[C@@H](CO)CO4)C3)nc(C)n2)cc1 [drawing 922] |
| < 10 | COc1cc(CNC(=O)c2cc(C3=NOC(c4ccc(CN5CCSCC5)cc4)C3)nc(C)n2)ccc1F (centres unmarked) |
| < 10 | CC(=O)NC[C@@H]1CO[C@@H]([C@@H]2CC(c3cc(C(=O)NCc4ccc(F)c(C)c4)nc(C)n3)=NO2)CO1 |
| > 1000 | Cc1nc(C(=O)NCc2cccc(F)c2)cc(C2=NO[C@@H]([C@H]3CO[C@H](CO)CO3)C2)n1 |
| < 10 | COc1cc(CNC(=O)c2cc(C3=NOC(c4ccc(=O)n(C5CC5)c4)C3)nc(C)n2)ccc1F (centres unmarked) |
| < 10 | COc1cc(CNC(=O)c2cc(C3=NOC(C4CCN(S(=O)(=O)C(C)C)CC4)C3)nc(C)n2)ccc1F (centres unmarked) |
| < 10 | Cc1nc(C(=O)NCc2ccc(F)c(C)c2)cc(C2=NOC([C@H]3CC[C@H](NC(=O)[C@H](C)O)CC3)C2)n1 (some centres unmarked) |
| 10 to 100 | COc1cc(CNC(=O)c2cc(C3=NOC(C4CCN(C(=O)CC#N)CC4)C3)nc(C)n2)ccc1F (centres unmarked) [drawing 881] |
| 10 to 100 | Cc1nc(C(=O)NCc2ccc(F)c(Cl)c2)cc(C2=NOC(C3CCN(C(=O)CO)CC3)C2)n1 (centres unmarked) |
| < 10 | COc1cc(CNC(=O)c2cc(C3=NOC(C4CCN(S(C)(=O)=O)CC4)C3)nc(C)n2)ccc1F (centres unmarked) |
| 10 to 100 | Cc1nc(C(=O)NCc2ccc(F)c(Cl)c2)cc(C2=NO[C@H]([C@H]3CO[C@@H](CO)CO3)C2)n1 [drawing 925] |
| 10 to 100 | COc1cc(CNC(=O)c2cc(C3=NOC(c4ccc(C(C)(C)O)cc4)C3)nc(C)n2)ccc1F (centres unmarked) |
| < 10 | Cc1nc(C(=O)NCc2ccc(F)c(Cl)c2)cc(C2=NOC(c3ccc(=O)n(C)c3)C2)n1 (centres unmarked) |
| < 10 | COc1cc(CNC(=O)c2cc(C3=NO[C@H]([C@H]4CO[C@H](CC#N)CO4)C3)nc(C)n2)ccc1F |
| < 10 | COc1cc(CNC(=O)c2cc(C3=NO[C@H]([C@H]4CO[C@H](C(=O)O)CO4)C3)nc(C)n2)ccc1F |
